Assay results taken from patent US20080200404A1, “Novel Antimalarial 9A-Carbamoyl-Aminoalkyl and 9A-Thiocarbamoyl-Aminoalkyl Azalides” (priority 2005, published 2008).
In brackets after ≈: the same amount, converted by molar mass. Like-named read-outs stand apart in the source and are kept apart here.

Legend:
Format in all cases: cell-based
[1] = tested on: Plasmodium falciparum clone CDC/Indochina III (W-2); experiment: In vitro antimalarial [3H]-hypoxanthine incorporation serial dilution assay, W2; conditions: P. falciparum W2, 72 hours exposure; for IC50: Plasmodium falciparum
Text: (§1) The in vitro screens for intrinsic antimalarial activity were based on modifications of the procedures described by Desjardins R E, Canfield C J, Haynes J D, Chulay J D. (Quantitative assessment of antimalarial activity in vitro by a semiautomated microdilution technique. Antimicrob Agents Chemother. 1979 December; 16(6):710-8.), Chulay J D, Haynes J D, Diggs C L. (Plasmodium falciparum: Assessment of in vitro growth by [3H]hypoxanthine incorporation. Exp. Parasitol. 1983 55:138-146.), and Milhous W K, Weatherly N F, Bowdre J H, Desjardins R E. (In vitro activities of and mechanisms of resistance to antifol antimalarial drugs. Antimicrob Agents Chemother. 1985 April; 27(4):525-30.). The system was limited to the assessment of the intrinsic activity against the erythrocytic asexual life cycle (blood schizontocides). Two Plasmodium falciparum clones from CDC/Indochina III (W-2) and CDC/Sierra Leone I (D-6) (Oduola A M, Weatherly N F, Bowdre J H, Desjardins R E. Plasmodium falciparum: cloning by single-erythrocyte micromanipulation and heterogeneity in vitro. Exp Parasitol. 1988 66(1):86-95.) were used for all assays. TM91C235, a multiple drug resistant isolate from Thailand, was used for the prescreening assay. W-2 is resistant to chloroquine, quinine, and pyrimethamine and susceptible to mefloquine. D-6 tends to be more resistant to mefloquine and susceptible to chloroquine, quinine, and pyrimethamine. All documents cited in this paragraph are incorporated by reference in their entirety.
(§2) All parasites were maintained in continuous long term cultures in RPMI-1640 medium supplemented with 6% washed human A positive (A+)(erythrocytes, 25 mM Hepes, […], and 10% heat inactivated A+human plasma or ALBUMAX® (lipid-rich bovine serum albumin; Invitrogen, Carlsbad, Calif.). All cultures and assays were conducted at 37° C. under an atmosphere of 5% CO2 and 5% O2, with a balance of N2.
(§3) After the preincubation, [^3H]-hypoxanthine was added to each well of the MTP. (The assay relies on the incorporation of radiolabeled hypoxanthine by the parasites, which indicates reproduction, and inhibition of isotope incorporation was attributed to activity of known or candidate antimalarial drugs). After 72 hr of total incubation time, the MTP were frozen to lyse the erythrocytes and parasites. The parasite DNA was recovered by harvesting the lysate onto glass-fiber filter plates using a Packard FilterMate™ Cell Harvester. The radioactivity was counted on a Packard TopCount™ microplate scintillation counter. The results were recorded as counts per minutes (CPM) per well at each drug concentration divided by the arithmetic mean of the CPM from the three untreated infection parasite control wells.
(§4) The serial dilution assay was conducted using the same assay conditions and stock solution of the compound used for the preliminary screen, described above. Both the D-6 and the W-2 clones were used. The compounds were diluted two-fold over 11 different concentration ranges with a starting concentration that was based on the preliminary screen. For each drug, the concentration response profile was determined and 50% inhibitory concentrations (IC50) were determined by using a non-linear, logistic dose response analysis program. […] For each assay, the IC50 for each clone was determined against the known antimalarials chloroquine and mefloquine. These control values established the compound's relative parasite susceptibility profile compared to known antimalarials. […]
(§5) The in vitro potency of the compounds has been compared with that of azithromycin to better gauge compounds suitable for further testing. As described above, parasites were exposed for 72 hours. Data from the in vitro potency tests of azithromycin against the three parasite strains have been averaged, and these numbers have been used for identification of “active” macrolide compounds.

[2] = tested on: Plasmodium falciparum clone CDC/Sierra Leone I (D-6); experiment: In vitro antimalarial [3H]-hypoxanthine incorporation serial dilution assay, D6; conditions: P. falciparum D6, 72 hours exposure; for IC50: Plasmodium falciparum, D6, 72 h
Text: as §1, §2, §3, §4, §5

[3] = tested on: Plasmodium falciparum TM91C235; experiment: In vitro antimalarial [3H]-hypoxanthine incorporation assay, TM91C235; conditions: P. falciparum TM91C235 (multiple drug resistant isolate), 72 hours exposure; for IC50: Plasmodium falciparum
Text: as §1, §2
The prescreening assay uses TM91C235 diluted at a 0.4% parasitemia in a 1% hematocrit in folic acid free and p-aminobenzoic acid free media RPMI-1640 and ALBUMAX®. One mg of the compound is typically dissolved in 100 μl of dimethyl sulfoxide (DMSO). The compound is further diluted in culture medium (FF) with ALBUMAX® for the first initial starting concentration. The rest of the stock drug solution was kept at −70° C. The isolate was preexposed, in duplicate, at three concentrations (25,000 ng/ml, 2,500 ng/ml, and 25 ng/ml) of the test compound for 48 hr in a 96-well microtiter plate (MTP) using the BIOMEK® 2000 automated laboratory workstation. Each MTP contains chloroquine as control to assess the relative activity of the compound and to monitor the response of TM91C235.
as §3
The serial dilution assay was conducted using the same assay conditions and stock solution of the compound used for the preliminary screen, described above. Both the D-6 and the W-2 clones were used. The compounds were diluted two-fold over 11 different concentration ranges with a starting concentration that was based on the preliminary screen. […]

[4] = compared with azithromycin, read-out: IC50 D6 (class symbol)

SMILES	IC50 [1] [µg/mL]	IC50 [2, 4] [µg/mL]	IC50 [3] [µg/mL]	IC50 ([2]; read-out: IC50 D6) [µg/mL]	IC50 W2 [1] [µg/mL]	IC50 D6 [2] [µg/mL]	IC50 TM91C235 [3] [µg/mL]
CC[C@H]1OC(=O)[C@H](C)[C@@H](O[C@H]2C[C@@](C)(OC)[C@@H](O)[C@H](C)O2)[C@H](C)[C@@H](O[C@@H]2O[C@H](C)C[C@H](N(C)C)[C@H]2O)[C@](C)(O)C[C@@H](C)CN(CCCNC(=O)NCc2ccc(OC)cc2)[C@H](C)[C@@H](O)[C@]1(C)O [Example 67]	0.195 (≈ 0.204 µM)	> 0.797	0.462 (≈ 0.484 µM)	–	–	–	–
CC[C@H]1OC(=O)[C@H](C)[C@@H](O[C@H]2C[C@@](C)(OC)[C@@H](O)[C@H](C)O2)[C@H](C)[C@@H](O[C@@H]2O[C@H](C)C[C@H](N(C)C)[C@H]2O)[C@](C)(O)C[C@@H](C)CN(CCCNC(=S)Nc2ccc(Cl)c(Cl)c2)[C@H](C)[C@@H](O)[C@]1(C)O [Example 132]	0.229 (≈ 0.229 µM)	–	0.0839 (≈ 0.0842 µM)	0.295 (≈ 0.296 µM)	–	–	–
CC[C@H]1OC(=O)[C@H](C)[C@@H](O[C@H]2C[C@@](C)(OC)[C@@H](O)[C@H](C)O2)[C@H](C)[C@@H](O[C@@H]2O[C@H](C)C[C@H](N(C)C)[C@H]2O)[C@](C)(O)C[C@@H](C)CN(CCCNC(=S)NC2CC2)[C@H](C)[C@@H](O)[C@]1(C)O [Example 113]	0.605 (≈ 0.679 µM)	> 0.797	0.866 (≈ 0.972 µM)	–	–	–	–
CC[C@H]1OC(=O)[C@H](C)[C@@H](O[C@H]2C[C@@](C)(OC)[C@@H](O)[C@H](C)O2)[C@H](C)[C@@H](O[C@@H]2O[C@H](C)C[C@H](N(C)C)[C@H]2O)[C@](C)(O)C[C@@H](C)CN(CCCNC(=S)NC23CC4CC(CC(C4)C2)C3)[C@H](C)[C@@H](O)[C@]1(C)O [Example 130]	0.207 (≈ 0.21 µM)	–	0.15 (≈ 0.152 µM)	0.545 (≈ 0.553 µM)	–	–	–
CC[C@H]1OC(=O)[C@H](C)[C@@H](O[C@H]2C[C@@](C)(OC)[C@@H](O)[C@H](C)O2)[C@H](C)[C@@H](O[C@@H]2O[C@H](C)C[C@H](N(C)C)[C@H]2O)[C@](C)(O)C[C@@H](C)CN(CCCNC(=O)Nc2ccccc2-c2ccccc2)[C@H](C)[C@@H](O)[C@]1(C)O.O=CO [Example 85]	0.209	–	0.142	0.262	–	–	–
CC[C@H]1OC(=O)[C@H](C)[C@@H](O[C@H]2C[C@@](C)(OC)[C@@H](O)[C@H](C)O2)[C@H](C)[C@@H](O[C@@H]2O[C@H](C)C[C@H](N(C)C)[C@H]2O)[C@](C)(O)C[C@@H](C)CN(CCCNC(=O)Nc2ccc3c(c2)OCO3)[C@H](C)[C@@H](O)[C@]1(C)O [Example 68]	0.106 (≈ 0.111 µM)	–	0.254 (≈ 0.265 µM)	0.798 (≈ 0.835 µM)	–	–	–
CC[C@H]1OC(=O)[C@H](C)[C@@H](O[C@H]2C[C@@](C)(OC)[C@@H](O)[C@H](C)O2)[C@H](C)[C@@H](O[C@@H]2O[C@H](C)C[C@H](N(C)C)[C@H]2O)[C@](C)(O)C[C@@H](C)CN(CCCN(CCC(N)=O)C(=O)Nc2ccc(Cl)cc2Cl)[C@H](C)[C@@H](O)[C@]1(C)O [Example 169, 9-Deoxo-9-dihydro-9a-[N′-(β-amidoethyl)-N′-(2,4-dichlorophenyl)carbamoyl-γ-aminopropyl]-9a-aza-9a-homoerythromycin A]	–	–	–	–	0.188 (≈ 0.179 µM)	0.2266 (≈ 0.216 µM)	0.1475 (≈ 0.14 µM)
CC[C@H]1OC(=O)[C@H](C)[C@@H](O[C@H]2C[C@@](C)(OC)[C@@H](O)[C@H](C)O2)[C@H](C)[C@@H](O[C@@H]2O[C@H](C)C[C@H](N(C)C)[C@H]2O)[C@](C)(O)C[C@@H](C)CN(CCCNC(=O)Nc2ccc(CC#N)cc2)[C@H](C)[C@@H](O)[C@]1(C)O [Example 63]	0.141 (≈ 0.149 µM)	> 0.797	0.542 (≈ 0.571 µM)	–	–	–	–
CC[C@H]1OC(=O)[C@H](C)[C@@H](O[C@H]2C[C@@](C)(OC)[C@@H](O)[C@H](C)O2)[C@H](C)[C@@H](O[C@@H]2O[C@H](C)C[C@H](N(C)C)[C@H]2O)[C@](C)(O)C[C@@H](C)CN(CCCNC(=S)Nc2ccc(OC(F)F)cc2)[C@H](C)[C@@H](O)[C@]1(C)O.O=CO [Example 134]	0.279	–	0.0997	0.398	–	–	–
CC[C@H]1OC(=O)[C@H](C)[C@@H](O[C@H]2C[C@@](C)(OC)[C@@H](O)[C@H](C)O2)[C@H](C)[C@@H](O[C@@H]2O[C@H](C)C[C@H](N(C)C)[C@H]2O)[C@](C)(O)C[C@@H](C)CN(CCCNC(=S)Nc2ccc(OC)cc2)[C@H](C)[C@@H](O)[C@]1(C)O.O=CO [Example 61]	0.253	> 0.797	0.436	–	–	–	–
CC[C@H]1OC(=O)[C@H](C)[C@@H](O[C@H]2C[C@@](C)(OC)[C@@H](O)[C@H](C)O2)[C@H](C)[C@@H](O[C@@H]2O[C@H](C)C[C@H](N(C)C)[C@H]2O)[C@](C)(O)C[C@@H](C)CN(CCCNC(=S)Nc2cc(F)ccc2C)[C@H](C)[C@@H](O)[C@]1(C)O [Example 62]	0.0502 (≈ 0.0523 µM)	–	0.11 (≈ 0.115 µM)	0.373 (≈ 0.389 µM)	–	–	–
CC[C@H]1OC(=O)[C@H](C)[C@@H](O[C@H]2C[C@@](C)(OC)[C@@H](O)[C@H](C)O2)[C@H](C)[C@@H](O[C@@H]2O[C@H](C)C[C@H](N(C)C)[C@H]2O)[C@](C)(O)C[C@@H](C)CN(CCCNC(=S)N[C@H]2CCCC[C@@H]2OCc2ccccc2)[C@H](C)[C@@H](O)[C@]1(C)O.O=CO [Example 123]	0.297	–	0.137	0.7	–	–	–
CCC1OC(=O)C(C)C(OC2CC(C)(OC)C(O)C(C)O2)C(C)C(OC2OC(C)CC(N(C)C)C2O)C(C)(O)CC(C)CN(CCNC(=O)Nc2ccc3ccccc3c2)C(C)C(O)C1(C)O (stereo not drawn) [Example 12, 9-Deoxo-9-dihydro-9a-[N′-(2-naphtyl)carbamoyl-β-aminoethyl]-9a-aza-9a-homoerythromycin A]	–	–	–	–	0.0432 (≈ 0.0456 µM)	0.0713 (≈ 0.0753 µM)	0.0289 (≈ 0.0305 µM)
CC[C@H]1OC(=O)[C@H](C)[C@@H](O[C@H]2C[C@@](C)(OC)[C@@H](O)[C@H](C)O2)[C@H](C)[C@@H](O[C@@H]2O[C@H](C)C[C@H](N(C)C)[C@H]2O)[C@](C)(O)C[C@@H](C)CN(CCCNC(=O)NC2CCCC2)[C@H](C)[C@@H](O)[C@]1(C)O [Example 56]	0.251 (≈ 0.277 µM)	> 0.797	0.556 (≈ 0.616 µM)	–	–	–	–
CC[C@H]1OC(=O)[C@H](C)[C@@H](O[C@H]2C[C@@](C)(OC)[C@@H](O)[C@H](C)O2)[C@H](C)[C@@H](O[C@@H]2O[C@H](C)C[C@H](N(C)C)[C@H]2O)[C@](C)(O)C[C@@H](C)CN(CCCNC(=S)Nc2c(F)cccc2F)[C@H](C)[C@@H](O)[C@]1(C)O [Example 104]	0.0831 (≈ 0.0863 µM)	–	0.181 (≈ 0.188 µM)	0.49 (≈ 0.509 µM)	–	–	–
CC[C@H]1OC(=O)[C@H](C)[C@@H](O[C@H]2C[C@@](C)(OC)[C@@H](O)[C@H](C)O2)[C@H](C)[C@@H](O[C@@H]2O[C@H](C)C[C@H](N(C)C)[C@H]2O)[C@](C)(O)C[C@@H](C)CN(CCCNC(=O)Nc2ccc3c(c2)CCC3)[C@H](C)[C@@H](O)[C@]1(C)O [Example 64]	0.07 (≈ 0.0736 µM)	–	0.0915 (≈ 0.0962 µM)	0.253 (≈ 0.266 µM)	–	–	–
